Data on six compounds can be found in ChEMBL document CHEMBL4732090, “Preparation of new 1,3-dibenzyl tetrahydropyridinylidene ammonium salts and their antimicrobial and anticellular activities” (Eur J Med Chem, 2021).

A word on the IC50: it is the concentration needed to halve the response being measured. As a reminder, the inhibition is the drop in the measured response relative to a control, in per cent.

Series [1] has as its system Plasmodium falciparum. In words: Antiplasmodial activity against Plasmodium falciparum NF54 erythrocytic stages assessed as reduction in [3H]hypoxanthine incorporation measured after 48 hrs by liquid scintillation counting method. The format is functional, organism-based.
Series [2] concerns Plasmodium falciparum. In words: Antiplasmodial activity against chloroquine and pyrimethamine resistant Plasmodium falciparum K1 strain. The format is functional, organism-based.
The nature of series [3]: Selectivity index, ratio of IC50 for rat L6 cells to IC50 for Plasmodium falciparum NF54. It counts as toxicity. To be noted: read-out: Ratio IC50.
Series [4] can be described thus: Selectivity index, ratio of IC50 for rat L6 cells to IC50 for chloroquine and pyrimethamine resistant Plasmodium falciparum K1. To be noted: read-out: Ratio IC50. It counts as toxicity.
In series [5] the test system is Trypanosoma brucei rhodesiense. As to the kind of experiment: Trypanocidal activity against Trypanosoma brucei rhodesiense STIB900 incubated for 70 hrs by Alamar blue assay. It counts as functional, organism-based. To be noted: STIB900, 70 h. (In general: Resazurin is reduced to fluorescent resorufin, in cell work by metabolically active cells.)
Series [6] can be described thus: Selectivity index, ratio of IC50 for rat L6 cells to IC50 for Trypanosoma brucei rhodesiense STIB900. It counts as toxicity. To be noted: read-out: Ratio IC50.
The subject of the next series is L6. In words: Cytotoxicity against rat L6 cells after 70 hrs by Alamar blue assay. It counts as cell-based. To be noted: L6, 70 h, read-out: IC50.
For the next series, the system named is HCT-116. As to the kind of experiment: Cytotoxicity against human HCT-116 cells assessed as inhibition of cell growth at 50 uM after 72 hrs by XTT assay relative to control. It counts as functional. For orientation: Tetrazolium assays rely on reduction of a dye to a coloured formazan, in cell work by metabolically active cells.
For the next series, the system named is U-251. As to the kind of experiment: Cytotoxicity against human U-251 cells assessed as inhibition of cell growth at 50 uM after 72 hrs by XTT assay relative to control. It counts as functional.
A further series relates to Staphylococcus aureus. As to the kind of experiment: Antibacterial activity against Staphylococcus aureus ATCC 29213 assessed as diameter of inhibition zone at 10 mg/ml by disk diffusion assay. The format is functional. To be noted: read-out: DIZ. (In general: In agar diffusion tests the substance spreads into inoculated agar from a disc or well.)
Series [7] deals with Staphylococcus epidermidis. In words: Antibacterial activity against Staphylococcus epidermis ATCC 12228 assessed as diameter of inhibition zone at 10 mg/ml by disk diffusion assay. It counts as functional. To be noted: read-out: DIZ.
The next series relates to Escherichia coli. In words: Antibacterial activity against Escherichia coli ATCC 25922 assessed as diameter of inhibition zone at 10 mg/ml by disk diffusion assay. The format is functional. To be noted: read-out: DIZ.
The next series deals with Pseudomonas aeruginosa. As to the kind of experiment: Antibacterial activity against Pseudomonas aeruginosa ATCC 27853 assessed as diameter of inhibition zone at 10 mg/ml by disk diffusion assay. It counts as functional. To be noted: read-out: DIZ.
A further series has as its system Candida albicans. As to the kind of experiment: Antifungal activity against Candida albicans ATCC 90028 assessed as diameter of inhibition zone at 10 mg/ml by disk diffusion assay. To be noted: read-out: DIZ. It counts as functional.

Take `CC1(C)C(Cc2ccc(C(F)(F)F)cc2)C(=[N+]2CCCC2)C=CN1Cc1ccc(C(F)(F)F)cc1` (racemic): the IC50 with Plasmodium falciparum [1] turned out to be 0.0083 µM; in the series with Plasmodium falciparum [2], 0.0031 µM; in [5] it was 0.42 µM; with L6, 26.4 µM. Besides, the selectivity ratio in series [3] was determined as 3180; in [4], 8520; in series [6], 62.9. The inhibition at 50 µM in the series with HCT-116 and in the series on U-251 was 100% throughout. In addition, the zone of inhibition at 10000 µg/mL came to 22 mm in the series on Staphylococcus aureus; 31 mm in series [7]; 15 mm in the series with Escherichia coli; 7 mm with Pseudomonas aeruginosa; 25 mm in the series with Candida albicans.
Turning to `CC1(C)C(Cc2ccc(Cl)cc2)C(=[N+]2CCCCC2)C=CN1Cc1ccc(Cl)cc1` (racemic), the IC50 in the series on Plasmodium falciparum [1] was 0.0038 µM; in the series on Plasmodium falciparum [2] it was 0.00038 µM; in series [5], 0.14 µM; with L6, 11.1 µM. The selectivity ratio is 2920 in series [3], 29200 in series [4] and 79.3 in series [6]. The inhibition at 50 µM with HCT-116 and in the series on U-251 was 100% each time. Besides, the zone of inhibition at 10000 µg/mL in the series on Staphylococcus aureus is 22 mm; in [7], 28 mm; in the series on Escherichia coli, 14 mm; in the series on Pseudomonas aeruginosa, 7 mm; in the series on Candida albicans, 26 mm.
As to `CC1(C)C(Cc2c(Cl)cccc2Cl)C(=[N+]2CCCC2)C=CN1Cc1ccc(Cl)cc1` (racemic), the IC50 with Plasmodium falciparum [1] amounted to 0.0036 µM; in the series with Plasmodium falciparum [2], 0.006 µM; in series [5] it was 0.052 µM; in the series with L6, 4.53 µM. For the same compound, the figures for the selectivity ratio in series [3], in series [4] and in series [6] were 1260, 755 and 87.1, respectively. The inhibition at 50 µM in the series on HCT-116 and with U-251 was 100% each time. For the same compound, the zone of inhibition at 10000 µg/mL with Staphylococcus aureus was found to be 21 mm; in series [7], 33 mm; with Escherichia coli, 15 mm; in the series on Pseudomonas aeruginosa it was 12 mm; in the series with Candida albicans it was 20 mm.
For the compound `CC(C)(C)c1ccc(CC2C(=[N+]3CCCC3)C=CN(Cc3ccccc3)C2(C)C)cc1` (racemic), the IC50 in the series with Plasmodium falciparum [1] came to 0.03 µM; in [5] it was 0.02 µM; in the series with L6 it was 0.94 µM. Further, the selectivity ratio in series [3] worked out at 31.3; in series [6], 47. For the same compound, the inhibition at 50 µM in the series with HCT-116 and in the series with U-251 was 100% in each case. The zone of inhibition at 10000 µg/mL with Staphylococcus aureus worked out at 22 mm; in series [7], 24 mm; in the series with Escherichia coli, 15 mm; in the series on Pseudomonas aeruginosa, 0 mm; in the series on Candida albicans, 22 mm.
On to `CC1(C)C(Cc2c(Cl)cccc2Cl)C(=[N+]2CCCC2)C=CN1Cc1c(Cl)cccc1Cl` (racemic), for which the results for the IC50 (in the series with Plasmodium falciparum [1]; in [5]; with L6) were 0.038 µM, 0.024 µM and 0.91 µM, respectively. For the same compound, the selectivity ratio in series [3] was determined as 23.9; in series [6] it was 37.9. Also, the inhibition at 50 µM in the series with HCT-116 and in the series on U-251 was 100% throughout. Also, the zone of inhibition at 10000 µg/mL in the series on Staphylococcus aureus turned out to be 23 mm; in series [7] it was 34 mm; in the series with Escherichia coli it was 14 mm; in the series on Pseudomonas aeruginosa, 6 mm; in the series on Candida albicans, 25 mm.
On to `CC1(C)C(Cc2ccc(Cl)cc2)C(=[N+]2CCCC2)C=CN1Cc1ccc(Cl)cc1` (racemic), for which the IC50 is 0.0014 µM with Plasmodium falciparum [1], 0.0016 µM in the series with Plasmodium falciparum [2], 0.17 µM in series [5] and 12.6 µM with L6. Besides, the selectivity ratio was 8980 in series [3], 7860 in [4] and 73.9 in [6]. Also, the inhibition at 50 µM with HCT-116 and with U-251 was 100% in each case. Besides, the zone of inhibition at 10000 µg/mL in the series on Staphylococcus aureus came out at 21 mm; in series [7] it was 34 mm; with Escherichia coli, 15 mm; in the series with Pseudomonas aeruginosa it was 7 mm; in the series on Candida albicans, 20 mm.
